Article PMC7143758, “Highly Substituted Phenol Derivatives with Nitric Oxide Inhibitory Activities from the Deep-Sea-Derived Fungus Trichobotrys effuse FS524” (Marine Drugs, 2020)

Key:
[1] = tested on: NO production in LPS-induced RAW 264.7 macrophages; assay: Inhibition of nitric oxide (NO) production in LPS-induced macrophages (Griess); format: cell-based, mouse; details: for IC50: LPS (1 μg/mL) 24 h, RAW 264.7 mouse macrophages, Griess, mean ± SD, triplicate; for inhibitory activities against NO production (in words): LPS-induced RAW 264.7 macrophages
Description: (§1) Compounds 1–6 were evaluated for the inhibitory activity of nitric oxide (NO) production in lipopolysaccharide (LPS)-induced RAW 246.7 mouse macrophages. The cells (180 μL) with a density of 5 × 10^5 cells/mL of media on a 96-well plate were put under 37 °C at a 5% CO2 condition. After a 24 h preincubation, the seeded cells were treated with gradient dilutions of 1-6 with a maximum concentration of 100 μM, followed by stimulation with LPS (1 μg/mL) for 24 h. Then 50 μL cell culture supernatant solution was moved to a new plate that contained NO detection Griess A (50 μL) and Griess B (50 μL). Finally, the absorbance was measured at 540 nm. Aminoguanidine was used as a positive control and all data were obtained in triplicate. The viability of RAW264.7 cells was evaluated according to the SRB method simultaneously to exclude the interference of the cytotoxicity of 1–6. The RAW264.7 cells were purchased from the Cell Bank of the Chinese Academy of Sciences.

[2] = Cytotoxicity / viability of macrophages (SRB method); format: cell-based, mouse; details: mouse, RAW264.7 macrophage cells, RAW264.7 macrophages
Description: as §1

RAW264.7 cells = assay: Cytotoxicity / viability of macrophages (SRB method); format: cell-based, mouse; details: RAW264.7 macrophages
Description: as §1

SMILES	IC50 [1] [µM]	inhibitory activities against NO production (in words) [1]	IC50 ([1]; Mus musculus, RAW264.7, 24 h) [µM]	IC50 at 24 h [2] [µM]	melting point [°C]	IC50 (RAW264.7 cells) [µM]
CCC1(O)C(=O)C=C(OCCc2ccc(O)cc2)CC1O (stereo not shown) [Compound 3, Trieffusol C]	51.9 ± 1.4	moderate inhibitory activities	51.9 to 55.9	> 200		
CCC1(O)C(=O)C2=C(CC1O)OC1=C(C(=O)C(O)(CC)C(O)C1)C2c1ccc(O)cc1 (stereo not shown) [Compound 1, Trieffusol A]			> 200	> 200	149 to 150	
C/C=C/C(=O)c1c(OC)cc2c(c1O)CCO2 [Compound 5, Trieffusol E]			65.5 ± 1.3	> 200		
CCc1c(O)cc2c(c1O)C(=O)C[C@H](C)O2 [Compound 4b, (−)-Trieffusol D]			55.9 ± 1.6	> 200		
CCCc1cc2c(c(O)c1CO)COC2=O [Compound 6, Trieffusol F]			111 ± 4.6	> 200		
N=C(N)NN [Aminoguanidine, reference compound]	24.8 ± 0.8					> 200
CCc1c(O)cc2c(c1O)C(=O)C[C@@H](C)O2 [Compound 4a, (+)-Trieffusol D]			54.3 ± 2.2	> 200		
CCc1c(O)cc2c(c1O)C(=O)CC(C)O2 (stereo not shown) [Compound 4, Trieffusol D]		moderate inhibitory activities	51.9 to 55.9	> 200		
CCC1(O)C(=O)C2=C(CC1O)OC1=C(C(=O)C(O)(CC)C(O)C1)C2c1ccc(O)cc1 (stereo not shown) [Compound 2, Trieffusol B]	108 ± 3					> 200
